According to article PMC9731865, “Gambogic acid and juglone inhibit RNase P through distinct mechanisms” (The Journal of Biological Chemistry, 2022):
Read-outs that look alike come from different tables or passages of the source.

Experiments:
Assay type in all cases: biochemical, A. thaliana
PRORP1 C222A/C353A = target: T1, PRORP1 C222A/C353A (Arabidopsis thaliana, UniProt Q66GI4, C222A/C353A); assay: Time-dependent inactivation by juglone, PRORP1 C222A/C353A
T1 construct: made in house
Protocol: (§1) Given the multiple sites of cysteine modification, we wanted to identify the one(s) that potentially play a significant role in PRORP1 inactivation. Therefore, several cysteine-to-alanine point mutants were expressed, purified, and subjected to inhibition studies. We tested both single-site (C353A and C373A) and double-site (C353A/C373A and C222A/C353A) mutations. […] The value of kinact,app for each PRORP1 at varied concentrations of juglone was determined by fitting a single exponential equation (Equation 5) to the data (Fig. 10A). Unexpectedly, the values of kinact/KI (reflecting the inhibition of E + I to form EI∗) increased for a number of the PRORP1 variants: wildtype (0.001 ± 0.00004 μM^-1 min^-1), C353A (0.005 ± 0.002 μM^−1 min^−1), C373A (0.002 ± 0.0004 μM^-1 min^−1), C222A/C353A (0.003 ± 0.0001 μM^−1 min^−1), and C353A/C373A (0.0008 ± 0.0002 μM^-1 min^−1). These modest increases could be due to a decrease in the KI value or an increase in the value of kinact. […] Although, we cannot discount the possibility, however unlikely, that juglone may employ a mode of inhibition beyond cysteine residue modification that our crystal structures fail to capture.
(§2) Figure 10 Effects of PRORP1 cysteine mutations on juglone inactivation. […]
(§3) For the analysis of juglone, PRORP1 activity was measured with varying preincubation time and juglone concentration. […]

PRORP1 C353A/C373A = target: T2, PRORP1 C353A/C373A (Arabidopsis thaliana, UniProt Q66GI4, C353A/C373A); assay: Time-dependent inactivation by juglone, PRORP1 C353A/C373A
T2 construct: made in house
T2 sequence (Q66GI4 77-572 C353A/C373A): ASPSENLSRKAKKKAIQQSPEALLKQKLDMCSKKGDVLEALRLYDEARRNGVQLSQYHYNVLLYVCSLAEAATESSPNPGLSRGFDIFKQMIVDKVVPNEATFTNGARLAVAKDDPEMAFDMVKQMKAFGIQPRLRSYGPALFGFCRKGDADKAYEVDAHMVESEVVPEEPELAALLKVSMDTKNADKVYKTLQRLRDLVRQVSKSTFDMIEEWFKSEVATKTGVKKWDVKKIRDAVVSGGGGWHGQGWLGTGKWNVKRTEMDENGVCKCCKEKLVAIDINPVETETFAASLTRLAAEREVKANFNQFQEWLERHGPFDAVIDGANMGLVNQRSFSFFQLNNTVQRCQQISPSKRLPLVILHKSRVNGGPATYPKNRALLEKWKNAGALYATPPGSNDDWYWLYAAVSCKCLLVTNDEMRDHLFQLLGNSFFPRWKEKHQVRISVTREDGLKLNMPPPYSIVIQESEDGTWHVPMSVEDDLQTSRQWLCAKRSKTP
Protocol: as §1, §2, §3

PRORP1 wildtype = target: T3, PRORP1 wildtype (Arabidopsis thaliana, UniProt Q66GI4); assay: Time-dependent inactivation of PRORP1 by juglone (varying preincubation time); settings: for kinact/KI: wildtype PRORP1, 0.3 nM PRORP1, 250 nM pre-tRNA, 22 °C
T3 construct: made in house
T3 sequence (Q66GI4 77-572): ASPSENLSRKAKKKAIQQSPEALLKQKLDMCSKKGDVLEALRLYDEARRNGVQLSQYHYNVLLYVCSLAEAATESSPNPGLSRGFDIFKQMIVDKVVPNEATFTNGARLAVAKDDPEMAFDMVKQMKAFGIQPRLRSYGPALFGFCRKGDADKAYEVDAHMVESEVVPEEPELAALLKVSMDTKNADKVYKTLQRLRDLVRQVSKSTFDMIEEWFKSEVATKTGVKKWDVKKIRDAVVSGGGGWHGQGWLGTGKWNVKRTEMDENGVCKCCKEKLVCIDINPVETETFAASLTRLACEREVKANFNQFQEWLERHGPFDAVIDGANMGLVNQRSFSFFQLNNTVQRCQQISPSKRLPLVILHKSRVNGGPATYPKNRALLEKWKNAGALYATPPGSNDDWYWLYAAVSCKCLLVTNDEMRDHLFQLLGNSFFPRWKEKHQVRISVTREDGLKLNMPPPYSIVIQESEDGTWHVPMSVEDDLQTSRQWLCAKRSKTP
Protocol: A global fit of the data (Equations 5 and 6) was used to calculate kinact/KI. […] The errors shown are the standard errors obtained from fitting Equation 5 to the data in A independently. Reactions were performed with 0.3 nM PRORP1, 250 nM pre-tRNA containing 40 nM Fl-pre-tRNA, at 22 °C, in 30 mM MOPS, pH 7.8, 1 mM TCEP, 5 mM MgCl2, 500 nM (12 μg/ml) yeast tRNA, 5 mM spermidine, 6.65 μg/ml BSA, and 0.01% NP-40. Data are fit to determine kinact/KI.
For the analysis of juglone, PRORP1 activity was measured with varying preincubation time and juglone concentration. Varying concentrations of juglone were preincubated with a 35 μl of PRORP1 from 2 min to 4 h in 30 mM MOPS pH 7.8, 5 mM MgCl2, 100 mM NaCl, 1 mM TCEP, 500 nM (12 μg/ml) yeast tRNA^mix, 5 mM spermidine, 6.65 μg/ml BSA, and 0.01% NP-40. The concentration of DMSO in each reaction was held constant at 1%. Reactions were initiated by addition of 5 μl of substrate for a final working concentration of 0.3 nM PRORP1 and 250 nM pre-tRNA, a substrate concentration well below the KM value. The dependence of the initial velocity on the preincubation time was fit to a single exponential decay equation (Equation 5) to determine kinact,app at each juglone concentration. The values for kinact,app for various juglone concentrations (represented by [I]) were fit with Equation 6 to determine kinact/KI, assuming a 2-step inactivation mechanism.(5) Activity(%)=Ae^−(kinact,app)t (6) kinact,app=kinact/KI(KI[I]/KI+[I])

PRORP1 C353A = target: T4, PRORP1 C353A (Arabidopsis thaliana, UniProt Q66GI4, C353A); assay: Time-dependent inactivation by juglone, PRORP1 C353A
T4 construct: made in house
T4 sequence (Q66GI4 77-572 C353A): as the sequence (Q66GI4 77-572 C353A/C373A) above, with A297C counted along it
Protocol: as §1, §2, §3

PRORP1 C373A = target: T5, PRORP1 C373A (Arabidopsis thaliana, UniProt Q66GI4, C373A); assay: Time-dependent inactivation by juglone, PRORP1 C373A
T5 construct: made in house
T5 sequence (Q66GI4 77-572 C373A): as the sequence (Q66GI4 77-572 C353A/C373A) above, with A277C counted along it
Protocol: as §1, §2, §3

T1 sequence (Q66GI4 77-572 C222A/C353A): as the sequence (Q66GI4 77-572 C353A/C373A) above, with C146A, A297C counted along it

## O=C1C=CC(=O)c2c(O)cccc21 [juglone, 5-hydroxy-1,4-naphthalenedione]
PRORP1 C222A/C353A
  kinact/KI: 50 M⁻¹ s⁻¹
PRORP1 C222A/C353A; double-cysteine mutation (C222A/C353A)
  inhibition at time 0: not observed
PRORP1 C353A/C373A
  kinact/KI: 13.3 M⁻¹ s⁻¹
PRORP1 C353A/C373A; double-cysteine mutation (C353A/C373A)
  inhibition at time 0: not observed
PRORP1 wildtype
  Ki: 12.5 ± 2.7 µM
PRORP1 wildtype; 10 μM juglone (highest concentration)
  decrease in initial activity (extrapolated to 0 min preincubation): 50%
PRORP1 wildtype; Equation 1
  Hill coefficient n of the fit to 0-min preincubation data: 1
PRORP1 wildtype; inhibition depends on preincubation time
  mode of inhibition of PRORP1: time-dependent inhibitor
PRORP1 wildtype; read-out: kinact/KI, global fit using Equations 5 and 6 (converted)
  kinact/KI: 16.7 M⁻¹ s⁻¹
PRORP1 wildtype; read-out: kinact/KI, hyperbolic fit using Equation 6 (converted)
  kinact/KI: 16.7 M⁻¹ s⁻¹
PRORP1 C353A
  Ki: > 10 µM
  kinact/KI: 83.3 M⁻¹ s⁻¹
PRORP1 C373A
  Ki: > 10 µM
  kinact/KI: 33.3 M⁻¹ s⁻¹
